Experiments:
25 mer C-G-DNA [1] = assay: TM measurement by RT-PCR (HRM/SYBR green), C-G DNA; format: binding; conditions: for shift in TM of C-G DNA: (d/dT) fluorescence (465-510), compared to the control without addition; for TM of 25 mer C-G-DNA in the treated well: control wells 84.3-86° C.
Procedure: (§1) The primers listed in Table 4 were purchased from Sigma Aldrich (Israel). Primers number 1 and 3 are complementary and annealed to form CG/GC double-stranded DNA fragment, and primers number 5 and 7 are complementary and annealed to form AT double-stranded DNA fragment. The DNA complementary oligomers were hybridized in a medium salt buffer containing 10 mM NaCl, 10 mM sodium phosphate and 0.1 mM EDTA, pH 7.0. The samples were heated to 90° C. for 5 min, slowly cooled to 20° C. and left at 4° (1 until used for TM measurements with RT-PCR.
(§2) According to this method, 5 μl of a selected double-stranded DNA is incubated with a 5 μl solution of a selected compound at RT for 5 min; 10 μl HRM/SYB (high resolution melting/syber green I) (X2) are then added; and the TM is then measured. The run program for TM measurement is as following: keep temperature of final solution at 25° C. for 5 min, raise temperature up to 99° C. with a rate of 0.1° C./sec, and then cool to 37° C.
(§3) In a further study, the effect of AH-11 as well as three additional similar compounds having the same heterocyclic (pyridine) core on the TM of DNA double-stranded sequences consisting of A-T or C-G base pairs only was tested by RT-PCR as described in Materials and Methods. The additional compounds tested are 4-amino-N-(6-aminopyridin-2-yl)butanamide, N,N′-(pyridine-2,6-diyl)bis(3-aminopropanamide), and N,N′-(pyridine-2,6-diyl)bis(4-aminobutanamide), herein identified […] and AH-14, respectively (chemical structures are shown in Scheme 5). […] Compounds AH-11, AH-12 and AH-13 increased the TM of 25 mer A-T-DNA by 4.2° C., 5.7° C. and 9.9° C., respectively. In all four cases, no effect was observed on the TM of 25 mer C-G-DNA (the TM shift range between 0.3 and 0.8° C.).
(§4) In this study, the ability of monomer units M1-6a, designed to be specific for A-T base pairs only, and M4-4a, designed to be specific for C-G base pairs only, to effectively and selectively bind to DNA double-stranded sequences consisting of A-T or C-G base pairs only was tested using the RT-PCR method as described in Material and Methods. Nevertheless, in order to neutralize a possible influence of the carboxylic groups of these monomers on the specificity and selectivity of the monomers, the compounds practically used were 3-(2-amino-9-(2-((2-(tert-butoxycarbonylamino)ethyl)(2-ethoxy-2-oxoethyl)amino)-2-oxoethyl)-9H-purin-6-ylamino)-N,N,N-trimethylpropan-1-aminium and 3-(9-(2-((2-(tert-butoxycarbonylamino)ethyl)(2-ethoxy-2-oxoethyl)amino)-2-oxoethyl)-2-oxo-2,9-dihydro-1H-purin-6-ylamino)-N,N,N-trimethylpropan-1-aminium, which are analogs of these monomer units M1-6a and M4-4a, respectively, in which the carboxyl groups are protected with ethyl (see Scheme 10 and 17).
The biological activity of the polymers synthesized, i.e., their ability to specifically interact with specific fragments of double-stranded DNA, was tested using the RT-PCR method, as described in Materials and Methods.

25 mer A-T-DNA [2] = assay: TM measurement by RT-PCR (HRM/SYBR green), A-T DNA; format: binding; conditions: for shift in TM of A-T DNA: (d/dT) fluorescence (465-510), compared to the control without addition; for TM of 25 mer A-T-DNA in the treated well: control wells 56.1-57.1° C.
Procedure: as §1, §2, §3, §4

25 mer A-T-DNA [3] = assay: TM measurement by RT-PCR (HRM/SYBR green), A-T DNA; format: binding; conditions: incubation time from 5 min to 60 or 100 min
25 mer C-G-DNA [4] = assay: TM of treated duplex DNA by UV spectra at 260 nm, C-G DNA; format: binding; conditions: UV 260 nm; incubated at 37° C. for 36 hours
Procedure: (§5) Duplex DNA (dsDNA-1,2) sequences are formed by incubating a solution of single-strand DNA-1 and single-strand DNA-2 (1:1) at 90° C. for 5 min, and slowly cooling down to RT for 1-2 hours. Treated Duplex DNA (dsDNA-1,2 bonded to a triplex forming molecule of the invention) is formed by incubating a solution of triplex forming molecule (TFM) of the invention and dsDNA-1,2 (1:1) at 37° C. for 36 hours.
(§6) The melting temperature (TM), i.e., the temperature at which a DNA double helix dissociates into single strands, measurements of Duplex DNA or Treated Duplex DNA are carried out using quartz cuvettes with an optical path length of 1 cm on a Cray 300 UV/vis spectrophotometer interfaced with a computer for data collection and analysis. The temperature is increased from 30° C. to 98° C. at the rate of 1° C./min, and the TM is determined by plotting the first derivative of the absorbance at 260 nm vs. temperature profile. TM is defined as the temperature at which half the molecules are single-stranded.
(§7) In order to test the effect of AH-11, designed to be specific for A-T base pair, on the TM of DNA double-stranded sequences consisting of A-T or C-G base pairs only, two solutions each containing one of the aforesaid sequences were incubated with a solution containing the compound AH-11 at 37° C. for 36 hours, and treated double-stranded DNA were formed. […]

25 mer A-T-DNA [5] = assay: TM of treated duplex DNA by UV spectra at 260 nm, A-T DNA; format: binding; conditions: UV 260 nm; incubated at 37° C. for 36 hours; TM without compound 53° C.
Procedure: as §5, §6, §7

[6] = tested on: restriction enzyme (satI); assay: Prevention of restriction enzyme digestion of a PCR product (agarose gel); format: biochemical; conditions: for preventing restriction enzyme satI from digesting the DNA fragment: lanes 5+5B, 5+7B, 10+7B compared with cut 5 and cut 10 without AH-13
Text: This can be seen by comparing lanes “5+5B”, “5+7B” and “[…]” with “cut 5” and “cut 10”, wherein no AH-13 was used.

| Compound | shift in TM of C-G DNA (25 mer C-G-DNA [1]) [°C] | shift in TM of A-T DNA (25 mer A-T-DNA [2]) [°C] | TM of 25 mer A-T-DNA in the treated well (25 mer A-T-DNA [2]) [°C] | effect on the TM of 25 mer A-T-DNA (25 mer A-T-DNA [2]) | TM of 25 mer C-G-DNA in the treated well (25 mer C-G-DNA [1]) [°C] | also measured |
| --- | --- | --- | --- | --- | --- | --- |
| 3-(2-amino-9-(2-((2-(tert-butoxycarbonylamino)ethyl)(2-ethoxy-2-oxoethyl)amino)-2-oxoethyl)-9H-purin-6-ylamino)-N,N,N-trimethylpropan-1-aminium [analog of M1-6a] | < 1.0 | 6.9 | 63 |  |  | effect on the TM of 25 mer C-G-DNA (25 mer C-G-DNA [1]): did not affect |
| NCCCC(=O)Nc1cccc(NC(=O)CCCN)n1 [AH-14, N,N′-(pyridine-2,6-diyl)bis(4-aminobutanamide)] | 0.8 | 11.7 |  | most effective compound |  |  |
| CC(C)(C)OC(=O)NCCN(CC(=O)O)C(=O)Cn1cnc2c(NCCC[N+](C)(C)C)nc(N)nc21 [M1-6a, 3-(2-amino-9-(2-((2-(tert-butoxycarbonylamino)ethyl)(carboxymethyl)amino)-2-oxoethyl)-9H-purin-6-ylamino)-N,N,N-trimethylpropan-1-aminium] |  |  | 63 |  | 85.1 | effect on the TM of 25 mer C-G-DNA (25 mer C-G-DNA [1]): did not affect at all; TM of treated 25 mer A-T-DNA upon increasing the incubation time (25 mer A-T-DNA [3]): No difference |
| CC(C)(C)OC(=O)NCCN(CC(=O)O)C(=O)Cn1cnc2c(NCCC[N+](C)(C)C)[nH]c(=O)nc21 [M4-4a, 3-(9-(2-((2-(tert-butoxycarbonylamino)ethyl)(carboxymethyl)amino)-2-oxoethyl)-2-oxo-2,9-dihydro-1H-purin-6-ylamino)-N,N,N-trimethylpropan-1-aminium] |  |  | 57.4 | did not affect at all | 90.1 |  |
| NCCCC(=O)Nc1cccc(N)n1 [AH-12, 4-amino-N-(6-aminopyridin-2-yl)butanamide] |  | 5.7 |  |  |  |  |
| NCCC(=O)Nc1cccc(N)n1 [AH-11, 3-amino-N-(6-aminopyridin-2-yl)propanamide] |  | 4.2 |  |  |  | effect on the TM of 25 mer C-G-DNA (25 mer C-G-DNA [4]): did not affect at all; TM of 25 mer A-T-DNA after treatment (25 mer A-T-DNA [5]): 85 °C |
| 3-(9-(2-((2-(tert-butoxycarbonylamino)ethyl)(2-ethoxy-2-oxoethyl)amino)-2-oxoethyl)-2-oxo-2,9-dihydro-1H-purin-6-ylamino)-N,N,N-trimethylpropan-1-aminium [analog of M4-4a] | 5.6 | 0.3 |  | did not affect | 90.1 |  |
| NCCC(=O)Nc1cccc(NC(=O)CCN)n1 [AH-13, N,N′-(pyridine-2,6-diyl)bis(3-aminopropanamide)] |  | 9.9 |  |  |  | interference with satI enzyme activity in lane 10+5B ([6]; 10 μl PCR product + 5 μl AH-13, both cut and uncut DNA present): not sufficient to completely interfere with the enzyme activity; preventing restriction enzyme satI from digesting the DNA fragment [6]: capable in a concentration dependent manner of preventing a restriction enzyme (satI); preventing restriction enzyme satI from digesting the DNA fragment ([6]; listed as AH-1): capable of specifically interfering with the activity of the restriction enzyme satI, in a concentration dependent manner |

— patent publication US20130231480A1, “SEQUENCE SPECIFIC DOUBLE-STRANDED DNA/RNA BINDING COMPOUNDS AND USES THEREOF” (GENEARREST LTD, priority 2010, published 2013)
